Test results as given in US10316017B2, “COT modulators and methods of use thereof” (Gilead Sciences, Inc., priority 2015, dated 2019).

Key:
[1] = test system: TNFα production in LPS-stimulated human monocytes; assay: Cot Monocyte TNFα Cell Based Assay; conditions: Homo sapiens, Monocyte, LPS-stimulated human monocytes, TNFα TR-FRET; read-out: EC50 TNF
Outline: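 Cells at 5,000/well were pretreated with compound for 1 h at 37 °C (0.5% DMSO final), then stimulated with 50 pg/ml LPS for 4 h at 37 °C. Supernatant TNFα was measured by two-antibody TR-FRET after overnight room-temperature incubation; values are percent of control between unstimulated and stimulated wells.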

[2] = biological target: T1, human Cot catalytic domain (30-397 amino acids) (Homo sapiens, UniProt P41279); assay: High Throughput Cot Biochemical Assay (KinEASE TR-FRET); conditions: Cot KinEASE TR-FRET, 400 μM ATP; read-out: IC50 HTRF
T1 construct: Purified recombinant human Cot catalytic domain (30-397 amino acids) was purchased from Cama Biosciences; purchased Cama Biosciences (so in the source)
Outline: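 Reaction of 5 nM recombinant human Cot catalytic domain (aa 30-397) with 1 μM STK3 peptide (XL665-labeled) and 400 μM ATP in 10 mM MOPS pH 7.0, 10 mM MgOAc, 1 mM DTT, 0.5 mg/mL BSA, 0.1% DMSO. Phosphopeptide detected by TR-FRET with europium anti-phospho antibody.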

T1 sequence (P41279 30-397): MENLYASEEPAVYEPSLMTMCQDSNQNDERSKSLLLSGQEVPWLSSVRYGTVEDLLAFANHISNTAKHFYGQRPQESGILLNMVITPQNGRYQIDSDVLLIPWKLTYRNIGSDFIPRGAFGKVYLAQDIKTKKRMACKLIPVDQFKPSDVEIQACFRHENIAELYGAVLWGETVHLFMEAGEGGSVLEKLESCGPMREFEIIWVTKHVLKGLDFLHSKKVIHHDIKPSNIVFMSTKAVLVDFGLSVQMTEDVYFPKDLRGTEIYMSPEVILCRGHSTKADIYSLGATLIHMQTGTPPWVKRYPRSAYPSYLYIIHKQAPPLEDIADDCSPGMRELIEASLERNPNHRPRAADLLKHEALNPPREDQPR

Row | EC50 [1] [nM] | IC50 [2] [nM] | Structure (SMILES)
1 | ≥ 1000 | ≥ 10000 | [2H][C@](Nc1cc(-c2cncnc2)c2ncc(C#N)c(N[C@H](CCC(=O)O)c3ccccc3)c2c1)(c1ccc(F)cc1)c1cn(C2CC2)nn1 [Example 950, (R)-4-((3-cyano-6-(((S)-(1-cyclopropyl-1H-1,2,3-triazol-4-yl)(4-fluorophenyl)methyl-d)amino)-8-(pyrimidin-5-yl)quinolin-4-yl)amino)-4-phenylbutanoic acid]
2 | ≥ 1000 | ≥ 10000 | [2H][C@@](Nc1cc(-c2cncnc2)c2ncc(C#N)c(N[C@H](CCC(=O)O)c3ccccc3)c2c1)(c1cn(C2CC2)nn1)c1ccccc1Cl [Example 951, (R)-4-((6-(((S)-(2-chlorophenyl)(1-cyclopropyl-1H-1,2,3-triazol-4-yl)methyl-d)amino)-3-cyano-8-(pyrimidin-5-yl)quinolin-4-yl)amino)-4-phenylbutanoic acid]
3 | 134 | 8 | CC(C)(C)CNc1c(C#N)cnc2c(C#N)cc(N[C@H](c3cn(C4(C#N)CCC4)nn3)c3ccccc3Cl)cc12 [Example 952, (S)-6-(((2-chlorophenyl)(1-(1-cyanocyclobutyl)-1H-1,2,3-triazol-4-yl)methyl)amino)-4-(neopentylamino)quinoline-3,8-dicarbonitrile]
4 | ≥ 1000 | 111 | [2H][C@@](Nc1cc(I)c2ncc(C#N)c(NCC(C)(C)C)c2c1)(c1cn(C2CC2)nn1)c1ccccc1Cl [Example 953, (S)-6-(((2-chlorophenyl)(1-cyclopropyl-1H-1,2,3-triazol-4-yl)methyl-d)amino)-8-iodo-4-(neopentylamino)quinoline-3-carbonitrile]
5 | 130 | 5 | CCN1CCC(n2cc([C@@H](Nc3cc(Cl)c4ncc(C#N)c(NCC(C)(C)C)c4c3)c3ccc(Cl)cc3)nn2)CC1 [Example 954, (S)-8-chloro-6-(((4-chlorophenyl)(1-(1-ethylpiperidin-4-yl)-1H-1,2,3-triazol-4-yl)methyl)amino)-4-(neopentylamino)quinoline-3-carbonitrile]
6 | 31 | 2 | CCN1CCC(n2cc([C@@H](Nc3cc(Cl)c4ncc(C#N)c(N[C@H](CCC#N)c5ccccc5)c4c3)c3ccc(Cl)cc3)nn2)CC1 [Example 955, 8-chloro-6-(((S)-(4-chlorophenyl)(1-(1-ethylpiperidin-4-yl)-1H-1,2,3-triazol-4-yl)methyl)amino)-4-(((R)-3-cyano-1-phenylpropyl)amino)quinoline-3-carbonitrile]
7 | 61 | 5 | CC(C)(C)CNc1c(C#N)cnc2c(C#N)cc(N[C@H](c3cn(C4(C#N)CC4)nn3)c3ccccc3Cl)cc12 [Example 956, (S)-6-(((2-chlorophenyl)(1-(1-cyanocyclopropyl)-1H-1,2,3-triazol-4-yl)methyl)amino)-4-(neopentylamino)quinoline-3,8-dicarbonitrile]
8 | 170 | 3 | CC(C)(C)CNc1c(C#N)cnc2c(C#N)cc(N[C@H](c3cn(C4(C(N)=O)CC4)nn3)c3ccccc3Cl)cc12 [Example 957, (S)-1-(4-((2-chlorophenyl)((3,8-dicyano-4-(neopentylamino)quinolin-6-yl)amino)methyl)-1H-1,2,3-triazol-1-yl)cyclopropane-1-carboxamide]
9 | 460 | 31 | [2H]C(Nc1cc(Cl)c2ncc(C#N)c(NCC(C)(C)C)c2c1)(c1cn(C2(C3CC3)CC2)nn1)c1ccccc1Cl (stereo not drawn) [Example 958, 6-(((1-([1,1'-bi(cyclopropan)]-1-yl)-1H-1,2,3-triazol-4-yl)(2-chlorophenyl)methyl-d)amino)-8-chloro-4-(neopentylamino)quinoline-3-carbonitrile]
10 | 86 | 12 | [2H][C@@](Nc1cc(Cl)c2ncc(C#N)c(NCC(C)(C)C)c2c1)(c1cn(C2(c3cccnc3)CC2)nn1)c1ccccc1Cl [Example 960, 8-chloro-6-(((2-chlorophenyl)(1-(1-(pyridin-3-yl)cyclopropyl)-1H-1,2,3-triazol-4-yl)methyl-d)amino)-4-(neopentylamino)quinoline-3-carbonitrile]

Continued, compound first:

Row | Structure (SMILES) | EC50 [1] [nM] | IC50 [2] [nM]
11 | CC[C@@H](Nc1c(C#N)cnc2c(C#N)cc(N[C@@H](c3cccc(C(N)=O)c3)c3cn(C4CC4)nn3)cc12)c1ccccc1 [Example 942, 3-((S)-(1-cyclopropyl-1H-1,2,3-triazol-4-yl) ((3,8-dicyano-4-(((R)-1-phenylpropyl)amino)quinolin-6-yl)amino)methyl)benzamide] | 141 | 1
12 | CC[C@@H](Nc1c(C#N)cnc2c(C#N)cc(N[C@@H](c3cccc(C(=O)N4CC(F)(F)C4)c3)c3cn(C4CC4)nn3)cc12)c1ccccc1 [Example 943, 6-(((S)-(1-cyclopropyl-1H-1,2,3-triazol-4-yl)(3-(3,3-difluoroazetidine-1-carbonyl)phenyl)methyl)amino)-4-(((R)-1-phenylpropyl)amino)quinoline-3,8-dicarbonitrile] | 93 | 4
13 | CC[C@@H](Nc1c(C#N)cnc2c(Br)cc(N[C@@H](c3cccc(C(N)=O)c3)c3cn(C4CC4)nn3)cc12)c1ccccc1 [Example 944, 3-((S)-((8-bromo-3-cyano-4-(((R)-1-phenylpropyl)amino)quinolin-6-yl)amino)(1-cyc1opropyl-1H-1,2,3-triazol-4-yl)methyl)benzamide] | 51 | 1
14 | N#CCC[C@@H](Nc1c(C#N)cnc2c(C#N)cc(N[C@H](c3cn(C4CC4)nn3)c3ccccc3Cl)cc12)c1ccccc1 [Example 945, 6-(((S)-(2-chlorophenyl)(1-cyclopropyl-1H-1,2,3-triazol-4-yl)methyl)amino)-4-(((R)-3-cyano-1-phenylpropyl)amino)quinoline-3,8-dicarbonitrile] | 29 | 2
15 | [2H][C@](Nc1cc(Cl)c2ncc(C#N)c(Nc3cccc(Cl)c3C(C)=O)c2c1)(c1ccc(F)cc1)c1cn(C2CC2)nn1 [Example 946, (S)-4-((2-acetyl-3-chlorophenyl)amino)-8-chloro-6-(((1-cyclopropyl-1H-1,2,3-triazol-4-yl) (4-fluorophenyl)methyl-d)amino)quinoline-3-carbonitrile] | ≥ 1000 | 745
16 | [2H][C@](Nc1cc(Cl)c2ncc(C#N)c(Nc3cccc(Cl)c3)c2c1)(c1ccc(F)cc1)c1cn(C2CC2)nn1 [Example 947, (S)-8-chloro-4-((3-chlorophenyl)amino)-6-(((1-cyclopropyl-1H-1,2,3-triazol-4-yl)(4-fluorophenyl)methyl-d)amino)quinoline-3-carbonitrile] | 282 | 14
17 | CC[C@@H](Nc1c(C#N)cnc2c(C#N)cc(N[C@@H](c3cccc(C(=O)NC)c3)c3cn(C4CC4)nn3)cc12)c1ccccc1 [Example 948, 3-((S)-(1-cyclopropyl-1H-1,2,3-triazol-4-yl) ((3,8-dicyano-4-(((R)-1-phenylpropyl)amino)quinolin-6-yl)amino)methyl)-N-methylbenzamide] | 78 | 1
18 | N#CCC[C@@H](Nc1c(C#N)cnc2c(C#N)cc(N[C@@H](c3ccccc3)c3cn(C4CC4)nn3)cc12)c1ccccc1 [Example 949, 4-(((R)-3-cyano-1-phenylpropyl)amino)-6-(((S)-(1-cyclopropyl-1H-1,2,3-triazol-4-yl)(phenyl)methyl)amino) quinoline-3,8-dicarbonitrile] | 19 | 1
